# Data taken from US20150302140A1, “IN SILICO IDENTIFICATION OF CANCER MOLECULAR SIGNALING PATHWAYS AND DRUG CANDIDATES” (H. LEE MOFFITT CANCER CENTER AND RESEARCH INSTITUTE, INC., priority 2012, published 2015).
# “Also recorded” adds a separate entry of the source. Read-outs that look alike come from different tables or passages of the source.
# How the values were obtained:
# Assay type in all cases: cell-based
# HeyA8 OVCA cell = test: HeyA8 cell proliferation under artesunate
# five OVCA cell lines = test: MTS assay, summary over five OVCA cell lines; conditions: for IC50: five OVCA cell lines, 72 hours, MTS
# Text: (§1) Ovarian cancer cell lines were either obtained from the European Collection of Cell Cultures, Salisbury, England (A2780S), or were kind gifts from Dr. Patricia Kruk, Department of Pathology, College of Medicine, University of South Florida, Tampa, Fla., and Susan Murphy, PhD, Dept of OB/GYN, Division of GYN Oncology, Duke University, Durham, N.C. (HeyA8, OVCAR2, OVCAR8, and OVCA420). Cell lines were maintained in RPMI-1640 (Invitrogen; Carlsbad, Calif.) supplemented with 10% fetal bovine serum (Fisher Scientific; Pittsburgh, Pa.), 1% sodium pyruvate, 1% penicillin/streptomycin, and 1% nonessential amino acids (HyClone; Hudson, N.H.). Mycoplasma testing was performed every 6 months following manufacturer's protocol (Lonza, Rockland, Me.).
# (§2) The MTS assay was used to assess viability of the OVCA cell lines. For the assays, 3-5×10^4 cells in 100 μL were plated to each well of a 96-well plate and allowed to adhere overnight at 37° C. and 5% CO2. The following day, cells were incubated with increasing concentrations of drug for 72 hours. Cell viability was analyzed using the CellTiter96® MTS assay kit (Promega, Madison, Wis.). Three replicate wells were used for each drug concentration, and an additional three control wells received a diluent control without drug. After drug incubation, the optical density of each well was read at 490 nm using a SpectraMax 190 microplate reader (Molecular Devices Inc., Sunnyvale, Calif.). Percent cell survival was expressed as (control-treated)/(control-blank)×100. All experiments were performed three times, or the minimum number of times to ensure reproducibility and accuracy of the results.
# The cytotoxic effects of continuous exposure to dasatinib and artesunate were assessed for five OVCA cell lines at 72 hours using the MTS assay (Table 5).
# OVCA2 = test: MTS cell proliferation/viability assay, 72 hours drug exposure; conditions: log10 of IC50, uM
# Text: as §1, §2
# A2780S = test: as above; conditions: Homo sapiens, log10 of IC50, uM
# Text: as §1, §2
# OVCA420 = test: as above; conditions: OVCA 420, log10 of IC50, uM
# Text: as §1, §2
# HEYA8 = test: as above; conditions: HEY A8, log10 of IC50, uM
# Text: as §1, §2
# OVCA8 = test: as above; conditions: log10 of IC50, uM
# Text: as §1, §2
# HeyA8 OVCA cells = test: In vitro scratch assay (cell migration); conditions: HeyA8, 25 mM or 50 mM artesunate, imaged days 0-2; DMSO vehicle closed gap within 2 days
# Protocol: The effects of pathway inhibition on OVCA cell metastatic properties were investigated using the in vitro scratch assay. HeyA8 OVCA cells were maintained in RPMI 1640 medium (Invitrogen) supplemented with 10% fetal bovine serum (FBS; Fisher Scientific, Pittsburgh, Pa.), 1% sodiumpyruvate, 1% penicillin/streptomycin (Cellgro, Manassas, Va.), and 1% nonessential amino acids (HyClone, Hudson, N.H.). Monolayers, 75-80% confluent, were cultured in serum-free media for 4 hours and then mechanically disrupted to create a wound using a 1 mL pipette tip. Culture plates were washed twice with serum-free media to remove floating cells and then incubated with media containing 10% FBS and either vehicle (dimethylsulfoxide [DMSO]) or drug. The DMSO concentration was maintained below 0.5% so as not to influence cell growth or migration. The underside of the culture plate by the wound area was marked with a Sharpie for reference, and wounds were imaged by phase-contrast microscopy on days 0, 1, and 2.
IC50 (A2780S) [µM],Compound,decrease of HeyA8 OVCA cell proliferation (HeyA8 OVCA cell; 25 mM artesunate),decrease of HeyA8 OVCA cell proliferation (HeyA8 OVCA cell; 50 mM artesunate) [%],"IC50 (five OVCA cell lines; log10 value, read-out: median IC50 (log 10) (converted)) [µM]","IC50 (five OVCA cell lines; log10 values, read-out: range of IC50 (log 10) (converted)) [µM]",IC50 (five OVCA cell lines; read-out: median IC50) [µM],IC50 (five OVCA cell lines; read-out: range of IC50) [µM],anti-proliferative activity against a panel of OVCA cells (five OVCA cell lines; panel of OVCA cells),IC50 (OVCA2) [µM],IC50 (OVCA420) [µM],IC50 (HEYA8) [µM],IC50 (OVCA8) [µM],ability of cells to migrate into the denuded area / fill in the gap of a scratch test (HeyA8 OVCA cells),IC50 (five OVCA cell lines; read-out: mean IC50) [µM]
1.23,C[C@H]1[C@H](OC(=O)CCC(=O)O)O[C@@H]2O[C@@]3(C)CC[C@H]4[C@H](C)CC[C@@H]1[C@@]24OO3 [Artesunate],approximately 42%,~64,4.29,0.0882 to 1.29,7.13,1.23 to 19.3,anti-proliferative activity,1.31,19.3,7.92,5.9,impaired the ability of the cells to migrate; also recorded: impaired in their ability to fill in the gap,–
0.918,Cc1nc(Nc2ncc(C(=O)Nc3c(C)cccc3Cl)s2)cc(N2CCN(CCO)CC2)n1 [Dasatinib],–,–,–,–,–,0.214 to 0.953,–,0.953,0.431,0.215,0.37,–,0.577
